Assay results published in US20040073961A1, “Nematode screening assay” (priority 2002, published 2004).
Where two headings read alike, the source gives them in different places.

How the values were obtained:
[1] = target: T1, rat I7 OR (Rattus norvegicus, UniProt P23270); conditions: from the literature (Zhao 1998; Araneda 2000); cited from earlier work
T1 sequence (P23270 1-327): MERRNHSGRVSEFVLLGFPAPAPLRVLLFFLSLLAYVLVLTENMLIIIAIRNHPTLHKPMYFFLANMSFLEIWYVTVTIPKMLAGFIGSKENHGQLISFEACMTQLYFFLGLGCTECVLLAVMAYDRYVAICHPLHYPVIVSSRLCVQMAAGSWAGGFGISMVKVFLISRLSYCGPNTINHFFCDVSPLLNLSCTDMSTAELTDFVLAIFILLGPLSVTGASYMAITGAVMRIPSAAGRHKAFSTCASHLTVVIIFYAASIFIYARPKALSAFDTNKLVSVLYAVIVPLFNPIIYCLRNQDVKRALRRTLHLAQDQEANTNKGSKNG

[2] = target: T1, rat I7 OR; assay: Population chemotaxis assay for volatile substances, Odr-10::I7 transgenic worms (I7 expressed in AWA neurons); assay type: in vivo, C. elegans; set-up: expressed in transfected cells; host or cells: transgenic C. elegans; AWB neurons (str-1 promoter) or AWA neurons (odr-10 promoter)
Method: (§1) (Bargmann, C. I., Hartwieg, E., and Horvitz, H. R. (1993) Cell 74, 515-527). One microliter of odorant and one microliter 1 M sodium azide were added at one end of the dish (zone 1), and one microliter of solvent (ethanol) and one microliter 1 M sodium azide were added at the opposite end (zone 6) as a control. Sodium azide was included to anaesthetize animals entering zones 1 and 6.
(§2) Where reported, worms were exposed to a 1:100 dilution of diacetyl, undiluted benzaldehyde, undiluted octanal and 1:5, 1:10, 1:15, 1:25, 1:50, 1:100, and 1:1000 dilutions of octanal (Sigma Chemical Co., St. Louis, Mo.). Population assay data for N2 and transgenic worm lines were compared using the two-tailed t test.
AWA neurons mediate chemotaxis to volatile attractants in C. elegans. […] It was expected that the activation of I7 with undiluted octanal in these transgenic worms would counteract the volatile avoidance to undiluted octanal observed in wild-type worms. Chemotaxis assays were performed with four independently derived C. elegans transgenic strains expressing I7 (FIG. 6). […] While most of the wildtype C. elegans were repelled toward zone 6, a significant number of odr-10::I7 transgenic worms was found in the proximity to the odorant source (FIGS. 6B and 3A). In order to investigate the specificity of the decrease in the aversive response of Odr10::I7 transgenic worms to undiluted octanal and to confirm that this decrease was due to the interaction of octanal with I7, chemotaxis assays with Odr-10::I7 transgenic worms were performed in which diacetyl and benzaldehyde were used.

[3] = target: T1, rat I7 OR; assay: Population chemotaxis assay for volatile substances, Str-1::I7 transgenic worms (I7 expressed in AWB neurons); assay type: in vivo, C. elegans; set-up: expressed in transfected cells; host or cells: transgenic C. elegans; AWB neurons (str-1 promoter) or AWA neurons (odr-10 promoter)
Method: as §1, §2
To investigate the possibility to functionally express mammalian ORs in C. elegans, wild-type nematodes were first characterized for their ability to detect and respond to increasing dilutions of volatile chemicals and particularly to octanal, an agonist for the rat I7 OR (FIG. 4B; Zhao, H., Ivic, L., Otaki J. M., Hashimoto, M., Mikoshiba, K., and Firestein, S. (1998) Science 279, […]; Araneda, R. C., Kini, A. D., and Firestein, S. (2000) Nature Neurosci. 12, 1248-1255). […] Higher dilutions of octanal gave chemotaxis indexes close to 0 indicating a neutral response of the wild-type worms to lower concentrations of the odorant. […] As AWB neurons mediate volatile avoidance in C. elegans, it was expected that the expression of the rat I7 OR in AWB neurons and its activation with a 1:10 dilution of octanal would counteract the olfactory attraction to 1:10 octanal observed in wild-type worms. I7 transgenic worms were generated, in which I7 expression was driven by the str-1 promoter, a controlling element exclusively functional in the two AWB neurons (Troemel, E. R., Kimmel, B. E., and Bargmann, C. I. (1997) Cell 91, 161-169). Five independently derived C. elegans transgenic strains expressing I7 were tested (FIG. 5). […]

[4] = test system: wild-type C. elegans; conditions: known from the literature, cited from earlier work
[5] = test system: wild-type C. elegans; assay: Population chemotaxis assay for volatile substances, wild-type worms; assay type: in vivo
Method: FIG. 3A: Chemotaxis assays on adult C. elegans to volatile compounds. […] One microliter of odorant and one microliter 1 M sodium azide were added at zone 1, and one microliter of control solvent and one microliter 1 M sodium azide were added at zone 6.
as §1, §2

[6] = specificity controls: diacetyl and benzaldehyde, Odr-10::I7 transgenic worms
[7] = specificity controls: 1:100 dilution of diacetyl, pure benzaldehyde, Str-1::I7 transgenic worms

change of chemotaxis index in relation to control wild-type worms ([2]; undiluted octanal, four Odr-10::I7 transgenic worm strains, statistically significant)	change of chemotaxis index in relation to control wild-type worms ([3]; 1:10 octanal, five Str-1::I7 transgenic worm strains, statistically significant)	SMILES	activity at the I7 receptor [1]	change of chemotaxis index in relation to control wild-type worms [2, 6]	change of chemotaxis index in relation to control wild-type worms [3, 7]	behavioral response of wild-type C. elegans ([4]; pure benzaldehyde)	behavioral response of wild-type C. elegans ([4]; 1:100 dilution of diacetyl)	chemotaxis index ([5]; 1:10 dilution of octanal, wild-type worms, scored after 1 hour)	chemotaxis index ([5]; higher dilutions of octanal than 1:10, wild-type worms, neutral response)	chemotaxis index ([5]; undiluted octanal, 1 microliter, wild-type worms, scored after 1 hour, +1.0 total attraction, −1.0 total repulsion)
		O=Cc1ccccc1 [benzaldehyde]	do not activate	did not change	did not change	induce aversion				
		CC(=O)C(C)=O [diacetyl]		did not change	did not change		induce attraction			
increased dramatically	decreased dramatically	CCCCCCCC=O [octanal]	agonist					+0.5	~0	−0.6
